In test [1] the target is T1, porcine pancreatic elastase (Sus scrofa, UniProt P00772).
T1 construct: gene CELA1; commercial native pancreatic enzyme (Sigma-Aldrich)
Nature of the test: Suc-Ala-Ala-Ala-pNA hydrolysis, […] nm kinetic. The format is biochemical. The conditions noted are these: read-out: % inhibition at 1 mg/mL.

Test [2] has as its target T2, bovine testis hyaluronidase (Bos taurus, UniProt Q2YDK3).
T2 construct: gene SPAM1; commercial native testis preparation (Sigma-Aldrich)
T2 sequence (Q2YDK3 36-553): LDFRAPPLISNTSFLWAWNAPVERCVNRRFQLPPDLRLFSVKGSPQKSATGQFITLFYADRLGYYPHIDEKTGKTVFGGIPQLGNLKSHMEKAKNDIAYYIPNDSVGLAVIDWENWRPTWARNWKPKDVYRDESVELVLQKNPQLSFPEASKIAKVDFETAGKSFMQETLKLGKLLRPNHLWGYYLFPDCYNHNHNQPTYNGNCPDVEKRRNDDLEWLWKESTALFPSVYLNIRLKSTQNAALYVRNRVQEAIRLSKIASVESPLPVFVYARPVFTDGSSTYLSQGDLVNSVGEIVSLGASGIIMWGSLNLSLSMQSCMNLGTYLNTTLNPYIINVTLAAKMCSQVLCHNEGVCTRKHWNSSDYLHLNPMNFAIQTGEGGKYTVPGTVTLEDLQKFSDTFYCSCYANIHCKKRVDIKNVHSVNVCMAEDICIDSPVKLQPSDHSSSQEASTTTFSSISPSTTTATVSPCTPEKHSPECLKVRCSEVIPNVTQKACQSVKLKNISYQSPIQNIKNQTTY
Nature of the test: turbidimetric hyaluronic acid degradation assay, […] nm. The note with it: read-out: % inhibition at 1 mg/mL. The format is biochemical.

T1 sequence (P00772 27-266): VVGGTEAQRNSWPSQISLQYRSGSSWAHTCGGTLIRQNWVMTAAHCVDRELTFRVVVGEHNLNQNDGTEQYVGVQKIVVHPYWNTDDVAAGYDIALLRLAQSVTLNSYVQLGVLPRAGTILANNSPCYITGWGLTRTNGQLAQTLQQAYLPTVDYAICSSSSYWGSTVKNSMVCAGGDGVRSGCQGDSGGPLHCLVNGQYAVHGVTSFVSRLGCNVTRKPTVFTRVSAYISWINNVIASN

Regarding `CC[C@@H]1CN2CCc3c([nH]c4cccc(OC)c34)[C@@H]2C[C@@H]1/C(=C\OC)C(=O)OC` [mitragynine], the values for the inhibition at 1000 µg/mL in test [1] and in test [2] were 54.5 ± 1.5% and 83.3 ± 1.35%, respectively.

The values above are taken from article PMC12294420, “Phytochemical Characterization, Bioactivities, and Nanoparticle-Based Topical Gel Formulation Development from Four Mitragyna speciosa Varieties” (Gels, 2025).
